Test results from PubChem BioAssay AID330 (DTP/NCI, 2004).
Where “and” joins values, the source holds several entries; their conditions need not be identical. Equal values may be shown once. Toxic doses and inconclusive results are not listed. How the source made its calls: active means survival T/C of 150% or more; inactive means T/C below 125% in these data. Square brackets hold non-standard residues; d marks the D form. Peptide text beside a SMILES is read from it. * marks the point of attachment. Cbz = O=C(OCc1ccccc1)*; Nva = CCC[CH](N)C(=O)O

Test system: P388 leukemia ip, CD2F1 mice, survival T/C
Test: NCI In Vivo Anticancer Drug Screen. Data for tumor model P388 Leukemia (intraperitoneal) in CD2F1 (CDF1) mice
Conditions: endpoint: median survival time, higher = longer survival
In short: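 Mice carrying the transplanted tumor received test compound or vehicle. Survival was recorded in each group, and the value is the treated-group measurement divided by that of the vehicle-treated control group.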

[1] = dose: 50.0 mg/kg/injection, schedule: Q01DX005 (ip), vehicle: Klucel (hydroxypropylcellulose) (HPC)
[2] = dose: 100.0 mg/kg/injection, schedule: Q01DX005 (ip), vehicle: Klucel (hydroxypropylcellulose) (HPC)
[3] = dose: 200.0 mg/kg/injection, schedule: Q01DX005 (ip), vehicle: Klucel (hydroxypropylcellulose) (HPC)
[4] = dose: 100.0 mg/kg/injection, schedule: Q04DX003 (ip), vehicle: saline
[5] = dose: 25.0 mg/kg/injection, schedule: Q01DX009 (ip), vehicle: saline with Tween-80
[6] = dose: 50.0 mg/kg/injection, schedule: Q01DX009 (ip), vehicle: saline with Tween-80
[7] = dose: 12.5 mg/kg/injection, schedule: Q01DX009 (ip), vehicle: saline with Tween-80

Measured: T/C

OCCN(Cc1ccccn1)Cc1ccccn1
inactive: dose: 7.5 mg/kg/injection, schedule: Q01DX005 (ip), vehicle: saline 99 % of control | dose: 15.0 mg/kg/injection, schedule: Q01DX005 (ip), vehicle: saline 106 % of control

CCOc1cccc(/C=C2\NC(=S)N(c3ccccc3)C2=O)c1O
inactive: [1] 101 % of control | [2] 93 % of control | [3] 99 % of control

Cc1ccc(S(=O)(=O)CC2(Br)CCc3ccccc3C2=O)cc1 (configuration not stated)
inactive: [4] 97 % of control | dose: 200.0 mg/kg/injection, schedule: Q04DX003 (ip), vehicle: saline 91 % of control | dose: 400.0 mg/kg/injection, schedule: Q04DX003 (ip), vehicle: saline 95 % of control

NC(=S)c1ccc(C=Nc2ccc(Cl)cc2)cc1
inactive: dose: 50.0 mg/kg/injection, schedule: Q01DX001 (ip), vehicle: other 102 % of control | dose: 100.0 mg/kg/injection, schedule: Q01DX001 (ip), vehicle: other 98 % of control

CCCCCCCCCCCCOCCCOP(=O)([O-])OCC[N+](C)(C)C
inactive: dose: 6.25 mg/kg/injection, schedule: Q01DX005 (ip), vehicle: saline 105 % of control | dose: 12.5 mg/kg/injection, schedule: Q01DX005 (ip), vehicle: saline 100 % of control | dose: 25.0 mg/kg/injection, schedule: Q01DX005 (ip), vehicle: saline 91 % of control | dose: 50.0 mg/kg/injection, schedule: Q01DX005 (ip), vehicle: saline 91 % of control | dose: 100.0 mg/kg/injection, schedule: Q01DX005 (ip), vehicle: saline 107 % of control

Cn1c(O)c(N=O)c(=O)n(C)c1=O
inactive: [5] 105 % of control | [6] 100 % of control | dose: 100.0 mg/kg/injection, schedule: Q01DX009 (ip), vehicle: saline with Tween-80 111 % of control

COC(=O)C1=C2c3cc4c(cc3CCN2C2(O)c3c(ccc(OC)c3OC)C(=O)C12C(=O)OC)OCO4 (configuration not stated)
inactive: dose: 50.0 mg/kg/injection, schedule: Q04DX002 (ip), vehicle: saline with Tween-80 96 % of control | dose: 100.0 mg/kg/injection, schedule: Q04DX002 (ip), vehicle: saline with Tween-80 103 % of control | dose: 200.0 mg/kg/injection, schedule: Q04DX002 (ip), vehicle: saline with Tween-80 96 % of control

CSc1nc(NC2OCC(O)C(O)C2O)c(Cl)c(=O)n1C (configuration not stated)
inactive: dose: 60.0 mg/kg/injection, schedule: Q01DX005 (ip), vehicle: saline with Tween-80 103 % of control | dose: 120.0 mg/kg/injection, schedule: Q01DX005 (ip), vehicle: saline with Tween-80 104 % of control | dose: 240.0 mg/kg/injection, schedule: Q01DX005 (ip), vehicle: saline with Tween-80 100 % of control

CN(C)c1ccc(/C=C/C=C2C(=O)NC(=S)NC2=O)cc1
inactive: dose: 100.0 mg/kg/injection, schedule: Q04DX002 (ip), vehicle: Klucel (hydroxypropylcellulose) (HPC) 89 % of control | dose: 200.0 mg/kg/injection, schedule: Q04DX002 (ip), vehicle: Klucel (hydroxypropylcellulose) (HPC) 92 % of control | dose: 400.0 mg/kg/injection, schedule: Q04DX002 (ip), vehicle: Klucel (hydroxypropylcellulose) (HPC) 87 % of control

CC1=C(C)C[C@](C)(S(=O)(=O)N2CCOCC2)S(=O)C1 (some centres not stated)
inactive: dose: 60.0 mg/kg/injection, schedule: Q01DX005 (ip), vehicle: saline 105 % of control | dose: 120.0 mg/kg/injection, schedule: Q01DX005 (ip), vehicle: saline 98 % of control | dose: 240.0 mg/kg/injection, schedule: Q01DX005 (ip), vehicle: saline 111 % of control

CC(=O)c1c(O)cc(C)n(Cc2ccccc2)c1=O
inactive: dose: 50.0 mg/kg/injection, schedule: Q01DX005 (ip), vehicle: saline with Tween-80 99 % of control | dose: 100.0 mg/kg/injection, schedule: Q01DX005 (ip), vehicle: saline with Tween-80 100 % of control | dose: 200.0 mg/kg/injection, schedule: Q01DX005 (ip), vehicle: saline with Tween-80 99 % of control

CCCC(NC(=O)OCc1ccccc1)C(=O)NC(CO)C(=O)O (configuration not stated) (Cbz-[Nva]-Ser-OH; configuration not given here)
inactive: [1] 94 % of control | [2] 108 % of control | [3] 94 % of control

COC(=O)[C@@]12OC[C@]34[C@H]([C@@H](O)[C@@H]1O)[C@@]1(C)CC(=O)C(O)=C(C)[C@@H]1C[C@H]3OC(=O)[C@H](OC(=O)C(Cc1ccccc1)NC(=O)OC(C)(C)C)[C@@H]24 (some centres not stated)
inactive: dose: 125.0 micrograms/kg/injection, schedule: Q01DX005 (ip), vehicle: Klucel (hydroxypropylcellulose) (HPC) 113 % of control | dose: 250.0 micrograms/kg/injection, schedule: Q01DX005 (ip), vehicle: Klucel (hydroxypropylcellulose) (HPC) 100 % of control | dose: 500.0 micrograms/kg/injection, schedule: Q01DX005 (ip), vehicle: Klucel (hydroxypropylcellulose) (HPC) 116 % of control | dose: 1000.0 micrograms/kg/injection, schedule: Q01DX005 (ip), vehicle: Klucel (hydroxypropylcellulose) (HPC) 114 % of control

O=C(CC(c1ccccc1)C(C(=O)O)c1ccccc1)c1ccccc1 (configuration not stated)
inactive: dose: 25.0 mg/kg/injection, schedule: Q01DX001 (ip), vehicle: saline with Tween-80 92 % of control | dose: 50.0 mg/kg/injection, schedule: Q01DX001 (ip), vehicle: saline with Tween-80 92 % of control | dose: 100.0 mg/kg/injection, schedule: Q01DX001 (ip), vehicle: saline with Tween-80 87 % of control | dose: 200.0 mg/kg/injection, schedule: Q01DX001 (ip), vehicle: saline with Tween-80 86 % of control

C/C(=N/NC(N)=S)C1CCC2C3CCC4CCCCC4(C)C3CC(O)C12C (configuration not stated)
inactive: [7] 101 % of control | [5] 93 % of control | [6] 92 % of control

COc1ccc([N+](=O)[O-])c(O)c1OC
inactive: dose: 12.5 mg/kg/injection, schedule: Q01DX009 (ip), vehicle: other 94 % of control | dose: 25.0 mg/kg/injection, schedule: Q01DX009 (ip), vehicle: other 96 % of control | dose: 50.0 mg/kg/injection, schedule: Q01DX009 (ip), vehicle: other 97 % of control | dose: 100.0 mg/kg/injection, schedule: Q01DX009 (ip), vehicle: other 94 % of control | dose: 200.0 mg/kg/injection, schedule: Q01DX009 (ip), vehicle: other 96 % of control

Cc1cs/c(=N/N=C2C=CC(=O)C=C2)n1O
inactive: dose: 50.0 mg/kg/injection, schedule: Q01DX009 (ip), vehicle: Klucel (hydroxypropylcellulose) (HPC) 102 % of control | dose: 100.0 mg/kg/injection, schedule: Q01DX009 (ip), vehicle: Klucel (hydroxypropylcellulose) (HPC) 107 % of control | dose: 200.0 mg/kg/injection, schedule: Q01DX009 (ip), vehicle: Klucel (hydroxypropylcellulose) (HPC) 101 % of control

CC#CCOCC(O)CCl (configuration not stated)
inactive: dose: 66.0 mg/kg/injection, schedule: Q04DX003 (ip), vehicle: saline 110 % of control | [4] 100 % of control | dose: 150.0 mg/kg/injection, schedule: Q04DX003 (ip), vehicle: saline 120 % of control

CCN(CC)[P+](C1=C(Cl)C(=O)C(Cl)=C(Cl)C1=O)(N(CC)CC)N(CC)CC
inactive: [7] 105 % of control | [5] 93 % of control | [6] 103 % of control

O=C(C1=C(NCc2ccccc2)CCCC1)c1ccccc1
inactive: dose: 12.5 mg/kg/injection, schedule: Q01DX009 (ip), vehicle: saline 97 % of control | dose: 25.0 mg/kg/injection, schedule: Q01DX009 (ip), vehicle: saline 100 % of control | dose: 50.0 mg/kg/injection, schedule: Q01DX009 (ip), vehicle: saline 104 % of control and 109 % of control

O=C1CSC(c2ccc(Cl)cc2)N1CCN1C(=O)CSC1c1ccc(Cl)cc1 (configuration not stated)
inactive: dose: 100.0 mg/kg/injection, schedule: Q04DX003 (ip), vehicle: saline with Tween-80 95 % of control | dose: 200.0 mg/kg/injection, schedule: Q04DX003 (ip), vehicle: saline with Tween-80 93 % of control | dose: 400.0 mg/kg/injection, schedule: Q04DX003 (ip), vehicle: saline with Tween-80 88 % of control
